Laboratory results from patent publication US6541463B1, “Inhibitors of type 5 and type 3 17β-hydroxysteroid dehydrogenase and methods for their use” (Endorecherche, Inc., priority 1998, dated 2003).
Read-outs that look alike come from different tables or passages of the source.

Legend:
glucocorticoid receptor = biological target: T1, glucocorticoid receptor (Rattus norvegicus, UniProt P06536); assay: Glucocorticoid receptor assay: inhibition of [3H]-dexamethasone binding, liver cytosol; settings: for inhibition at 1 µM: read-out: % Inhibition Glucocorticold Receptor E^−6; for inhibition at 0.01 µM: read-out: % Inhibition Glucocorticold Receptor E^−8
T1 construct: from tissue; host or cells: liver cytosol of male Sprague-Dawley rats
T1 sequence (P06536 1-795): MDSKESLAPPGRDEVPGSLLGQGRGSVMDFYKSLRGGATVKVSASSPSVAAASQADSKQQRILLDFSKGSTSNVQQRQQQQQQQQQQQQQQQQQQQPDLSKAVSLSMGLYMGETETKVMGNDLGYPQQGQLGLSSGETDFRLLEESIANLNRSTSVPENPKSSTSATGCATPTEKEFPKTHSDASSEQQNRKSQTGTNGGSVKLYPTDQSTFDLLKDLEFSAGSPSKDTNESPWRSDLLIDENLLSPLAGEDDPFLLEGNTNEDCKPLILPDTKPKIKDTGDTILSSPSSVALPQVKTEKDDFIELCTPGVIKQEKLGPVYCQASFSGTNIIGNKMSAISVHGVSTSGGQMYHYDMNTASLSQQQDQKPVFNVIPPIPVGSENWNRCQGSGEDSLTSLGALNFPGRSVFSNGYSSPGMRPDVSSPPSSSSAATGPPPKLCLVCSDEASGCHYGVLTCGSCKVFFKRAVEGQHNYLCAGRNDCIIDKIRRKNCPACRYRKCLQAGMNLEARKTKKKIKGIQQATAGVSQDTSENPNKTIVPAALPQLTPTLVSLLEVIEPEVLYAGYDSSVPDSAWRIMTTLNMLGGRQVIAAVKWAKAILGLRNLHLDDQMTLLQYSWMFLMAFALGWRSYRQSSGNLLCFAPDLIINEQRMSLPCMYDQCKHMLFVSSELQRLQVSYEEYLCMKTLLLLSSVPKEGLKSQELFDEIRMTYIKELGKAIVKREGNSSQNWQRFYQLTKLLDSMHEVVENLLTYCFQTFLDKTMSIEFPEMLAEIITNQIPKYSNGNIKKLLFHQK
Experimental: The manner in which the percentage of inhibition is determined is described in “Other Tests; F-Glucocorticoid Receptor Assay”.
[6,7-^3H(N)]-Dexamethasone (39 Ci/mmol) was purchased from New England Nuclear (Lachine, Québec, Canada) while unlabeled dexametasone was obtained from Steraloids (Wilton, N.H.). All other chemicals were of analytical grade.
Stock solutions of the unlabeled steroids were kept at 4° C. in ethanol. The desired steroid solutions were then prepared by appropriate dilution in buffer B (10 mM Tris-HCl, 1.5 mM EDTA, 10 mM α-monothioglycerol, pH 7.4) containing 30% ethanol.
Male Sprague-Dawley rats weighing 200-300 g were obtained from Charles-River Inc. (St-Constant, Québec, Canada). The rats were killed by cervical dislocation and the liver were rapidly removed, dissected free from adhering tissue and frozen on dry-ice. Tissues were kept at −80° C. until use.
All procedures were performed at 4° C. Tissues were eminced and homogenized in 10 vol (w/v) of buffer A (25 mM Tris-HCl, 1.5 mM EDTA, 10 mM α-monothioglycerol, 10% glycerol, 10 mM sodium molybdate, pH 7.4) using a Polytron PT-10 homogenizer (Brinkmann Instruments, Canada) at a setting of 5 for two periods of 10 sec, with intervals of 10 sec for cooling. The homogenate was then centrifuged at 105,000×g for 90 min. The supernatant was used immediately for assay.
Glucocorticoid binding was measured using the dextran-coated charcoal adsorption technique. Incubations were performed at 0-4° C. for 16-18 h using 100 μl of cytosol, 100 μl of [^3H]-Dexamethasone (5 nM final) and 100 μl of unlabeled compounds at the indicated concentrations. Each concentration was done in triplicate. Assay was ended with 300 μl of DCC (2.5% Norit A and 0.25% Dextran T-70 in Buffer B). After 10 min of incubation, tubes were centrifuged at 2,000×g for 10 min. and decanted in vials with 6 ml of BCS liquid scintillation (New England Nuclear, Dupont). The radioactivity was measured in a Beckman counter at a counting efficiency of 35%.

[1] = tested on: Shionogi mouse mammary carcinoma cells; assay: Antiandrogenic activity: inhibition of DHT-induced proliferation of Shionogi cells; format: cell-based; settings: for IC50: Mus musculus
Experimental: The manner in which the inhibition is determined is described in “Other Tests; B-Androgenic/Antiandrogenic Activity”. Lower numbers are desirable. ND means that a determination was not done.
Androgenic/antiandrogenic activity of some preferred compounds has been measured using the Shionogi mouse mammary carcinoma cells.
Minimal essential culture medium (MEM), non-essential amino acids, and fetal calf serum were purchased from Flow Laboratories. In order to remove endogenous steroids, serum was incubated overnight at 4° C. with 1% activated charcoal (Norit A, Fisher) and 0.1% Dextran T-70 (Pharmacia). A 2-h supplementary adsorption was performed at 25° C. in order to further remove protein-bound steroids. Serum was also inactivated by a 20-min incubation at 56° C.
5α-dihydrotestosterone (DHT) was obtained from Steraloids. The antiandrogen hydroxyflutamide (OH-FLU) was kindly supplied by Drs. T. L. Nagabuschan and R. Neri (Schering Corporation, Kenilworth, U.S.A.).
Shionogi male mice bearing androgen-sensitive mammary tumors were obtained from Drs. Keishi Matsumoto, Osaka, Japan, and Yvonne Lefebvre, Ottawa, Canada. For primary culture, tumors were excised and washed in ice-cold sterile 25 mM Hepes buffer (137 mM NaCl; 5 mM KCl; 0.7 mM Na2HPO4; 10 mM glucose, pH 7.2). After mincing with scissors, the tumor minces were digested for 2 h at 37° C. in Hepes buffer containing 3.8 mg/ml collagenase (Clostridium, Boehringer), 1.5 mg/ml hyaluronidase II (Sigma), and 3% bovine serum albumin fraction V (Schwartz-Mann). Dispersed cells were collected by centrifugation (500×g for 10 min), washed twice by suspension in minimal essential medium (MEM) containing 5% dextran-coated charcoal-treated fetal calf serum (DCC-FCS), 1% non-essential amino acids, 10 IU/ml penicillin, 50 μg/ml streptomycin, and 100 nM dihydrotestosterone (DHT) (Steraloids).
Cells were plated in the same medium at a density of 75 000 cells/ml in 75 cm^2 flasks under an atmosphere of 5% carbon dioxide in air at 37° C. The medium was changed weekly. The steroids and antisteroids were dissolved in ethanol and kept in stock solutions chosen to yield final ethanol concentrations less than 0.01% in the culture medium.
Cells were subcultured at near-confidence by gentle digestion in a solution of 0.1% pancreatin (Flow Laboratories) in Hepes buffer containing 3 mM ethylenediaminetetraacetic acid (EDTA) (pH 7.2). Cells were pelleted by centrifugation, resuspended in culture medium, counted in a Coulter counter, and replated as described above. Soft agar cloning was performed as described (Stanley et al., Cell 10: 35-44, 1977) in the presence of 100 nM DHT.
Cells were plated in 24-well plates at a density of 20 000 cells/well. The indicated increasing concentrations of agents were added to triplicate dishes, and cells were grown for 10-12 days with changes of medium every 3-4 days. Cell number was measured by direct counting in a Coulter counter.
ED50 values of action of DHT and glucocorticoids were calculated according to a least-square regression as described (Rodbard, Endocrinology 94: 1427-1431, 1974). Statistical significance was calculated according to a multiple-range test (Kramer, Biometrics 12: 307-310,1956).

[2] = Table 4′, DHT-induced proliferation, E^−6 (10^−6 M)
[3] = Table 4′, DHT-induced proliferation, E^−7
[4] = read-out: Antiandrogenic Activity Shionogi, DHT [IC50]

Row | SMILES | % Inhibition Glucocorticoid Receptor E^−6 (glucocorticoid receptor; E^−6) | % Inhibition Glucocorticoid Receptor E^−8 (glucocorticoid receptor; E^−8) | Antiandrogenic Activity Shionogi, DHT E^−6 ([1]; with DHT, E^−6) | Antiandrogenic Activity Shionogi, DHT E^−7 ([1]; with DHT, E^−7) | inhibition at 1 µM (glucocorticoid receptor; Table 4′, E^−6) | inhibition at 0.01 µM (glucocorticoid receptor; Table 4′, E^−8) | Antiandrogenic Activity Shionogi, DHT E^−6 [1, 2] | Antiandrogenic Activity Shionogi, DHT E^−7 [1, 3] | also measured
1 | CC12C=CC(=O)C=C1C=CC1C2CCC2(C)C(=O)C3(CCCCC3)CC12 (stereo not drawn) [CS-204] | 0% | 0% | −13 | −25 |  |  |  |  | 
2 | CC1(C)CCC2(CCC3C4CCc5ccccc5C4CCC32C)OC1=O (stereo not drawn) [CS-224] |  |  |  |  | 5% | 1% | −11% | 23% | 
3 | CC(=O)O[C@]1(C)C(=O)CCC2C3C=C(C)C4=CC(=O)C=C[C@]4(C)C3CC[C@@]21C (stereo partly drawn) [CS-237] | 69% | 7% | −106 | −51 |  |  |  |  | IC50 ([1]; with DHT, value in square brackets on second line, read-out: Antiandrogenic Activity Shionogi DHT [IC50 (nM)]): 95 nM
4 | CSCCOc1ccc2c(c1)CCC1C2CCC2(C)C1CCC21CCCC(=O)O1 [CS-242, 3-Methylthioethyloxy-1,3,5(10)-estratrien-17(R)-spiro-2′-(6′-oxo) Tetrahydropyran] |  |  |  |  | 0% | 0% | −66% | 9% | 
5 | CCC(=O)O[C@]1(C(C)=O)CCC2C3C=C(C)C4=CC(=O)C[C@H](C)[C@]4(C)C3CC[C@@]21C (stereo partly drawn) [CS-243] |  |  |  |  |  |  |  |  | % Inhibition Glucocorticoid Receptor (glucocorticoid receptor; E^−6): 29%; % Inhibition Glucocorticoid Receptor (glucocorticoid receptor; E^−8): 0%; Antiandrogenic Activity Shionogi, DHT ([1]; DHT, E^−6): −129; Antiandrogenic Activity Shionogi, DHT ([1]; DHT, E^−7): −102; IC50 [1, 4]: 11 nM
6 | CCCC(=O)OC1(C(C)=O)CCC2C3C=C(C)C4=CC(=O)CC(C)C4(C)C3CCC21C (stereo not drawn) [CS-245] |  |  |  |  |  |  |  |  | % Inhibition Glucocorticoid Receptor (glucocorticoid receptor; E^−6): 43%; % Inhibition Glucocorticoid Receptor (glucocorticoid receptor; E^−8): 0%; Antiandrogenic Activity Shionogi, DHT ([1]; DHT, E^−6): −109; Antiandrogenic Activity Shionogi, DHT ([1]; DHT, E^−7): −106; IC50 [1, 4]: 12 nM
7 | C[C@]12CCC3c4ccc(O)cc4CCC3C1CC[C@@]21CCCC(=O)O1 (stereo partly drawn) [EM-919, 1,3,5(10)-estratrien-3-ol-17(R)-spiro-2′(6′-oxo)tetrahydropyran] |  |  |  |  |  |  | −95% | +38% | % Inhibition Glucocorticold Receptor *E^−5 (glucocorticoid receptor; Table 4′, starred values, E^−5): 33* %; % Inhibition Glucocorticold Receptor *E^−7 (glucocorticoid receptor; Table 4′, starred values, E^−7): 0* %; IC50 ([1]; Table 4′, bracketed values, read-out: Antiandrogenic Activity Shionogi, DHT [IC50 (nM)]): 609 nM
8 | COC(=O)CCCC(=O)O[C@]1(C(C)=O)CC[C@H]2[C@@H]3C=C(C)C4=CC(=O)CC[C@]4(C)[C@H]3CC[C@@]21C [EM-1007, 6-Methyl-4,6-pregnadien-17α-ol-3,20-dione 4′-Carbomethoxybutyrate] |  |  |  |  |  |  |  |  | % Inhibition Glucocorticoid Receptor (glucocorticoid receptor; E^−6): 0%; % Inhibition Glucocorticoid Receptor (glucocorticoid receptor; E^−8): 0%; Antiandrogenic Activity Shionogi, DHT ([1]; DHT, E^−6): −76; Antiandrogenic Activity Shionogi, DHT ([1]; DHT, E^−7): −14
9 | CC1CCC2(CCC3C4CCc5ccccc5C4CCC32C)OC1=O (stereo not drawn) [EM-1025] |  |  |  |  | 0% | 0% | −25% | −14% | 
10 | CCCC(=O)O[C@]1(C)C(=O)CCC2C3C=C(C)C4=CC(=O)CC[C@]4(C)C3CC[C@@]21C (stereo partly drawn) [EM-1078] | 94% | 20% | −72 | −79 |  |  |  |  | 
11 | CCC[C@@H]1CC2C3C=CC4=CC(=O)CC[C@]4(C)C3CC[C@]2(C)C1=O (stereo partly drawn) [EM-1097] | 0% | 0% | −71 | −3 |  |  |  |  | 
12 | CN1C(=O)C=C[C@]2(C)C3CC[C@@]4(C)C(CC[C@@]45CCCC(=O)O5)C3CCC12 (stereo partly drawn) [EM-1122-CS] |  |  |  |  |  |  |  |  | inhibition at 1 µM (glucocorticoid receptor; Table 5 column 15, E^−6): 0%; inhibition at 0.01 µM (glucocorticoid receptor; Table 5 column 15, E^−8): 0%; IC50 ([1]; Table 5, bracketed value, read-out: Antiandrogenic Activity Shlonogl, DHT [IC50 (nM)]): 447 nM; Antiandrogenic Activity Shlonogl, DHT E^−6 ([1]; Table 5, DHT, E^−6): −74%; Antiandrogenic Activity Shlonogl, DHT E^−7 ([1]; Table 5, DHT, E^−7): −14%
13 | C[C@]12CCC3c4cc([N+](=O)[O-])c(O)cc4CCC3C1CC[C@@]21CCCC(=O)O1 (stereo partly drawn) [EM-1124, 2-Nitro-1,3,5(10)-estraetriene-3-ol-17(R)-spiro-2′-(6′-oxo)tetrahydropyran] |  |  |  |  | 1% | 1% | −65% | 0% | 
